{
  "source": "patent US11963995B2",
  "about": "“Methods comprising desmopressin” (Ferring B.V., priority 2008, dated 2024)",
  "system": "adult patients with nocturia",
  "assay": "Long term nocturnal voids, change from baseline up to week 52 (Parts II/III)",
  "format": "in vivo, human",
  "conditions": "for mean decrease in nocturnal voids per night at one year: Part III",
  "description": "To ensure that the study remained fully blinded during the full extent of both Parts I and II, re-randomization of subjects assigned to placebo after 4 weeks of treatment was predetermined at the time of initial randomization. […] The total treatment duration for each subject depended on when that subject was randomized in Part I and was estimated to be a minimum of 4 weeks and a maximum of 6 months. Upon completion of Part II of the study, subjects were given the option to participate in an open-label study with expected total treatment duration (double-blind extension plus open-label study) of at least 12 months (i.e., Part III). In Part III, subjects were assigned to the same treatment as in Part II, initially in a blinded manner. Subjects were unblinded and the study became open label only when all subjects in Parts I and II remaining in the study had entered Part III. During Part III, 10 μg was identified as a sub-therapeutic dose based on efficacy data from Part I. As a consequence, patients in the 10 μg treatment group were re-randomized (beginning Q4 2008) to one of the other treatment groups (i.e., 25 μg, 50 μg, or 100 μg). The total treatment duration was at least 12 months. A total of 508 patients entered the open-labeled extension (i.e., Part III). […] A summary of the changes from baseline is presented for all eligible subjects. […] However, based on the data below, the additional decreases in the number of voids can be characterized as clinically significant. As used here, “clinically significant” means a minimum worthwhile effect.",
  "data": [
    {"smiles": "NC(=O)CC[C@@H]1NC(=O)[C@H](Cc2ccccc2)NC(=O)[C@H](Cc2ccc(O)cc2)NC(=O)CCSSC[C@@H](C(=O)N2CCC[C@H]2C(=O)N[C@H](CCCN=C(N)N)C(=O)NCC(N)=O)NC(=O)[C@H](CC(N)=O)NC1=O", "note": "[desmopressin]", "values": [
      {"measurement": "mean decrease in nocturnal voids per night at one year", "setting": "25 μg, all eligible subjects", "value": 1.4, "unit": "voids per night"},
      {"measurement": "Change from baseline of nocturnal voids, Mean", "setting": "25 μg, all eligible female subjects, Day 28", "value": "−1.26"},
      {"measurement": "Change from baseline of nocturnal voids, Mean", "setting": "25 μg, all eligible female subjects, Week 8", "value": "−1.51"},
      {"measurement": "Change from baseline of nocturnal voids, Mean", "setting": "25 μg, all eligible female subjects, Week 12", "value": "−1.66"},
      {"measurement": "Change from baseline of nocturnal voids, Mean", "setting": "25 μg, all eligible female subjects, Week 20", "value": "−1.68"},
      {"measurement": "Change from baseline of nocturnal voids, Mean", "setting": "25 μg, all eligible female subjects, Week 28", "value": "−1.86"},
      {"measurement": "Change from baseline of nocturnal voids, Mean", "setting": "25 μg, all eligible female subjects, Week 52", "value": "−1.75"},
      {"measurement": "Change from baseline of nocturnal voids, Mean", "setting": "25 μg, all eligible male subjects, Day 28", "value": "−0.76"},
      {"measurement": "Change from baseline of nocturnal voids, Mean", "setting": "25 μg, all eligible male subjects, Week 8", "value": "−0.84"},
      {"measurement": "Change from baseline of nocturnal voids, Mean", "setting": "25 μg, all eligible male subjects, Week 12", "value": "−0.90"},
      {"measurement": "Change from baseline of nocturnal voids, Mean", "setting": "25 μg, all eligible male subjects, Week 20", "value": "−1.25"},
      {"measurement": "Change from baseline of nocturnal voids, Mean", "setting": "25 μg, all eligible male subjects, Week 28", "value": "−1.15"},
      {"measurement": "Change from baseline of nocturnal voids, Mean", "setting": "25 μg, all eligible male subjects, Week 52", "value": "−1.13"},
      {"measurement": "Change from baseline of nocturnal voids, Mean", "setting": "25 μg, all eligible subjects, Day 28", "value": "−0.98"},
      {"measurement": "Change from baseline of nocturnal voids, Mean", "setting": "25 μg, all eligible subjects, Week 8", "value": "−1.16"},
      {"measurement": "Change from baseline of nocturnal voids, Mean", "setting": "25 μg, all eligible subjects, Week 12", "value": "−1.29"},
      {"measurement": "Change from baseline of nocturnal voids, Mean", "setting": "25 μg, all eligible subjects, Week 20", "value": "−1.48"},
      {"measurement": "Change from baseline of nocturnal voids, Mean", "setting": "25 μg, all eligible subjects, Week 28", "value": "−1.44"},
      {"measurement": "Change from baseline of nocturnal voids, Mean", "setting": "25 μg, all eligible subjects, Week 52", "value": "−1.41"},
      {"measurement": "Change from baseline of nocturnal voids, Mean", "setting": "25 μg, all subjects with or without an assessment at week 52, Day 28", "value": "−0.96"},
      {"measurement": "Change from baseline of nocturnal voids, Mean", "setting": "25 μg, all subjects with or without an assessment at week 52, Week 12", "value": "−1.42"},
      {"measurement": "Change from baseline of nocturnal voids, Mean", "setting": "25 μg, all subjects with or without an assessment at week 52, Week 20", "value": "−1.61"},
      {"measurement": "Change from baseline of nocturnal voids, Mean", "setting": "25 μg, all subjects with or without an assessment at week 52, Week 28", "value": "−1.39"},
      {"measurement": "Change from baseline of nocturnal voids, Mean", "setting": "25 μg, all subjects with or without an assessment at week 52, Week 52", "value": "−1.41"},
      {"measurement": "Change from baseline of nocturnal voids, Mean", "setting": "25 μg, all subjects with or without an assessment at week 52, time printed as \"Week\" (between Day 28 and Week 12)", "value": "−1.31"},
      {"measurement": "mean decrease in nocturnal voids per night at one year", "setting": "50 μg, all eligible subjects", "value": 1.77, "unit": "voids per night"},
      {"measurement": "Change from baseline of nocturnal voids, Mean", "setting": "50 μg, all eligible female subjects, Day 28", "value": "−1.30"},
      {"measurement": "Change from baseline of nocturnal voids, Mean", "setting": "50 μg, all eligible female subjects, Week 8", "value": "−1.60"},
      {"measurement": "Change from baseline of nocturnal voids, Mean", "setting": "50 μg, all eligible female subjects, Week 12", "value": "−1.62"},
      {"measurement": "Change from baseline of nocturnal voids, Mean", "setting": "50 μg, all eligible female subjects, Week 20", "value": "−1.93"},
      {"measurement": "Change from baseline of nocturnal voids, Mean", "setting": "50 μg, all eligible female subjects, Week 28", "value": "−1.89"},
      {"measurement": "Change from baseline of nocturnal voids, Mean", "setting": "50 μg, all eligible female subjects, Week 52", "value": "−1.95"},
      {"measurement": "Change from baseline of nocturnal voids, Mean", "setting": "50 μg, all eligible male subjects, Day 28", "value": "−1.16"},
      {"measurement": "Change from baseline of nocturnal voids, Mean", "setting": "50 μg, all eligible male subjects, Week 8", "value": "−1.31"},
      {"measurement": "Change from baseline of nocturnal voids, Mean", "setting": "50 μg, all eligible male subjects, Week 12", "value": "−1.30"},
      {"measurement": "Change from baseline of nocturnal voids, Mean", "setting": "50 μg, all eligible male subjects, Week 20", "value": "−1.73"},
      {"measurement": "Change from baseline of nocturnal voids, Mean", "setting": "50 μg, all eligible male subjects, Week 28", "value": "−1.28"},
      {"measurement": "Change from baseline of nocturnal voids, Mean", "setting": "50 μg, all eligible male subjects, Week 52", "value": "−1.69"},
      {"measurement": "Change from baseline of nocturnal voids, Mean", "setting": "50 μg, all eligible subjects, Day 28", "value": "−1.22"},
      {"measurement": "Change from baseline of nocturnal voids, Mean", "setting": "50 μg, all eligible subjects, Week 8", "value": "−1.44"},
      {"measurement": "Change from baseline of nocturnal voids, Mean", "setting": "50 μg, all eligible subjects, Week 12", "value": "−1.44"},
      {"measurement": "Change from baseline of nocturnal voids, Mean", "setting": "50 μg, all eligible subjects, Week 20", "value": "−1.80"},
      {"measurement": "Change from baseline of nocturnal voids, Mean", "setting": "50 μg, all eligible subjects, Week 28", "value": "−1.55"},
      {"measurement": "Change from baseline of nocturnal voids, Mean", "setting": "50 μg, all eligible subjects, Week 52", "value": "−1.80"},
      {"measurement": "Change from baseline of nocturnal voids, Mean", "setting": "50 μg, all subjects with or without an assessment at week 52, Week 12", "value": "−1.51"},
      {"measurement": "Change from baseline of nocturnal voids, Mean", "setting": "50 μg, all subjects with or without an assessment at week 52, Week 20", "value": "−1.71"},
      {"measurement": "Change from baseline of nocturnal voids, Mean", "setting": "50 μg, all subjects with or without an assessment at week 52, Week 28", "value": "−1.55"},
      {"measurement": "Change from baseline of nocturnal voids, Mean", "setting": "50 μg, all subjects with or without an assessment at week 52, Week 52", "value": "−1.80"},
      {"measurement": "Change from baseline of nocturnal voids, Mean", "setting": "50 μg, all subjects with or without an assessment at week 52, time printed as \"Day\" (after Day 0)", "value": "−1.10"},
      {"measurement": "Change from baseline of nocturnal voids, Mean", "setting": "50 μg, all subjects with or without an assessment at week 52, time printed as \"Week\" (before Week 12)", "value": "−1.43"},
      {"measurement": "mean decrease in nocturnal voids per night at one year", "setting": "100 μg, all eligible subjects", "value": 2.11, "unit": "voids per night"},
      {"measurement": "Change from baseline of nocturnal voids, Mean", "setting": "100 μg, all eligible female subjects, Day 28", "value": "−1.50"},
      {"measurement": "Change from baseline of nocturnal voids, Mean", "setting": "100 μg, all eligible female subjects, Week 8", "value": "−1.69"},
      {"measurement": "Change from baseline of nocturnal voids, Mean", "setting": "100 μg, all eligible female subjects, Week 12", "value": "−1.79"},
      {"measurement": "Change from baseline of nocturnal voids, Mean", "setting": "100 μg, all eligible female subjects, Week 20", "value": "−1.98"},
      {"measurement": "Change from baseline of nocturnal voids, Mean", "setting": "100 μg, all eligible female subjects, Week 28", "value": "−1.75"},
      {"measurement": "Change from baseline of nocturnal voids, Mean", "setting": "100 μg, all eligible female subjects, Week 52", "value": "−2.11"},
      {"measurement": "Change from baseline of nocturnal voids, Mean", "setting": "100 μg, all eligible male subjects, Day 28", "value": "−1.31"},
      {"measurement": "Change from baseline of nocturnal voids, Mean", "setting": "100 μg, all eligible male subjects, Week 8", "value": "−1.52"},
      {"measurement": "Change from baseline of nocturnal voids, Mean", "setting": "100 μg, all eligible male subjects, Week 12", "value": "−1.89"},
      {"measurement": "Change from baseline of nocturnal voids, Mean", "setting": "100 μg, all eligible male subjects, Week 20", "value": "−1.92"},
      {"measurement": "Change from baseline of nocturnal voids, Mean", "setting": "100 μg, all eligible male subjects, Week 28", "value": "−1.92"},
      {"measurement": "Change from baseline of nocturnal voids, Mean", "setting": "100 μg, all eligible male subjects, Week 52", "value": "−2.12"},
      {"measurement": "Change from baseline of nocturnal voids, Mean", "setting": "100 μg, all eligible subjects, Day 28", "value": "−1.406"},
      {"measurement": "Change from baseline of nocturnal voids, Mean", "setting": "100 μg, all eligible subjects, Week 8", "value": "−1.61"},
      {"measurement": "Change from baseline of nocturnal voids, Mean", "setting": "100 μg, all eligible subjects, Week 12", "value": "−1.83"},
      {"measurement": "Change from baseline of nocturnal voids, Mean", "setting": "100 μg, all eligible subjects, Week 20", "value": "−1.95"},
      {"measurement": "Change from baseline of nocturnal voids, Mean", "setting": "100 μg, all eligible subjects, Week 28", "value": "−1.83"},
      {"measurement": "Change from baseline of nocturnal voids, Mean", "setting": "100 μg, all eligible subjects, Week 52", "value": "−2.11"},
      {"measurement": "Change from baseline of nocturnal voids, Mean", "setting": "100 μg, all subjects with or without an assessment at week 52, Day 28", "value": "−1.31"},
      {"measurement": "Change from baseline of nocturnal voids, Mean", "setting": "100 μg, all subjects with or without an assessment at week 52, Week 8", "value": "−1.47"},
      {"measurement": "Change from baseline of nocturnal voids, Mean", "setting": "100 μg, all subjects with or without an assessment at week 52, Week 12", "value": "−1.73"},
      {"measurement": "Change from baseline of nocturnal voids, Mean", "setting": "100 μg, all subjects with or without an assessment at week 52, Week 20", "value": "−1.86"},
      {"measurement": "Change from baseline of nocturnal voids, Mean", "setting": "100 μg, all subjects with or without an assessment at week 52, Week 52", "value": "−2.11"},
      {"measurement": "Change from baseline of nocturnal voids, Mean", "setting": "100 μg, all subjects with or without an assessment at week 52, time printed as \"Week\" (between Week 20 and Week 52)", "value": "−1.80"}
    ]}
  ]
}
